Read-outs that look alike come from different tables or passages of the source.
Tests used:
Assay type in all cases: cell-based
[1] = target: Ba/F3-EGFR-WT cells (BA/F3 wild type EGFR) (Homo sapiens, UniProt P00533); test: BA/F3 (wild type) proliferation assay, Cell Titer-Glo; conditions: Table 7; plated with 10 ng/mL EGF, without IL-3, 48 h; read-out: BA/F3 (wild type) IC50
Method: (§1) Plates were incubated at 37° C. for 48 h. Retrovirus was harvested by filtering the media supernatant through a 0.45 μm filter.
(§2) Ba/F3 cells purchased from DSMZ were grown in RPMI+10% FBS+10 ng/mL IL-3 and infected with filtered retroviral supernatant at a 1:2 dilution. Polybrene was added to a concentration of 8 μg/mL, plates were spun for 90 min, and incubated overnight at 37° C. 2 μg/mL puromycin was added to the infected cells 24 h after infection and cells were continually grown in the presence of puromycin and 10 ng/mL IL-3. Following stably expressing Ba/F3 cell lines were generated: Ba/F3-EGFR-WT.
For cell survival assays, Ba/F3 cells were grown to a density of 1-2 million cells per mL, spun down and resuspended in media without IL-3, and replated at a concentration 200,000-500,000 cells per mL. The cells ectopically expressing WT EGFR were plated with 10 ng/mL Millipore Culture grade EGF.
(§3) 24 hours later, cells were plated in 30 μL in a 384 well plate at a concentration of 3200 cells per well for cells assayed in the absence of IL-3. 100 nL of compound was added to each well using a 100 nL pin head, and plates were incubated at 37° C. for 48 h.
(§4) Cell viability was measured by adding 30 μL of Cell Titer-Glo Luminescent Cell Viability Reagent. Plates were sealed with Perkin Elmer Top-Seal, inverted several times to mix, and immediately centrifuged at 1000 rpm for 2 min. Plates were incubated in low light conditions for 8-10 min and luminescence was measured.

[2] = system: Ba/F3-EGFR-delLREA cells (EGFR del19/delLREA (746-750), E746_A750del); test: BA/F3 EGFR del19/delLREA (746-750) (E746_A750del) cell survival assay, Cell Titer-Glo
Method: as §1
as §2, with “Ba/F3-EGFR-L858R, Ba/F3-EGFR-delLREA, (Ba/F3-vector-control).” for “Ba/F3-EGFR-WT.”
(§5) For cell survival assays, Ba/F3 cells were grown to a density of 1-2 million cells per mL, spun down and resuspended in media without IL-3, and replated at a concentration 200,000-500,000 cells per mL. The cells ectopically expressing pBABEpuro empty vector were plated with 10 ng/mL IL-3.
as §3, with “2 days” for “24 hours”, “50” for “30”, “4000” for “3200”, “absence of IL-3 and 2000 cells per well for cells (pBABE puro empty vector) assayed in the presence” for “absence”
as §4, with “20” for “30”, “Reagent diluted 1:3 in PBS.” for “Reagent.”

Ba/F3-EGFR-L858R cells = Ba/F3-EGFR-L858R cells (Homo sapiens, UniProt P00533, L858R, cells depend on it); test: BA/F3 EGFR L858R cell survival assay, Cell Titer-Glo; conditions: read-out: BA/F3 (EGFR L858R) IC50
Sequence of Ba/F3-EGFR-L858R cells (P00533 whole entry L858R): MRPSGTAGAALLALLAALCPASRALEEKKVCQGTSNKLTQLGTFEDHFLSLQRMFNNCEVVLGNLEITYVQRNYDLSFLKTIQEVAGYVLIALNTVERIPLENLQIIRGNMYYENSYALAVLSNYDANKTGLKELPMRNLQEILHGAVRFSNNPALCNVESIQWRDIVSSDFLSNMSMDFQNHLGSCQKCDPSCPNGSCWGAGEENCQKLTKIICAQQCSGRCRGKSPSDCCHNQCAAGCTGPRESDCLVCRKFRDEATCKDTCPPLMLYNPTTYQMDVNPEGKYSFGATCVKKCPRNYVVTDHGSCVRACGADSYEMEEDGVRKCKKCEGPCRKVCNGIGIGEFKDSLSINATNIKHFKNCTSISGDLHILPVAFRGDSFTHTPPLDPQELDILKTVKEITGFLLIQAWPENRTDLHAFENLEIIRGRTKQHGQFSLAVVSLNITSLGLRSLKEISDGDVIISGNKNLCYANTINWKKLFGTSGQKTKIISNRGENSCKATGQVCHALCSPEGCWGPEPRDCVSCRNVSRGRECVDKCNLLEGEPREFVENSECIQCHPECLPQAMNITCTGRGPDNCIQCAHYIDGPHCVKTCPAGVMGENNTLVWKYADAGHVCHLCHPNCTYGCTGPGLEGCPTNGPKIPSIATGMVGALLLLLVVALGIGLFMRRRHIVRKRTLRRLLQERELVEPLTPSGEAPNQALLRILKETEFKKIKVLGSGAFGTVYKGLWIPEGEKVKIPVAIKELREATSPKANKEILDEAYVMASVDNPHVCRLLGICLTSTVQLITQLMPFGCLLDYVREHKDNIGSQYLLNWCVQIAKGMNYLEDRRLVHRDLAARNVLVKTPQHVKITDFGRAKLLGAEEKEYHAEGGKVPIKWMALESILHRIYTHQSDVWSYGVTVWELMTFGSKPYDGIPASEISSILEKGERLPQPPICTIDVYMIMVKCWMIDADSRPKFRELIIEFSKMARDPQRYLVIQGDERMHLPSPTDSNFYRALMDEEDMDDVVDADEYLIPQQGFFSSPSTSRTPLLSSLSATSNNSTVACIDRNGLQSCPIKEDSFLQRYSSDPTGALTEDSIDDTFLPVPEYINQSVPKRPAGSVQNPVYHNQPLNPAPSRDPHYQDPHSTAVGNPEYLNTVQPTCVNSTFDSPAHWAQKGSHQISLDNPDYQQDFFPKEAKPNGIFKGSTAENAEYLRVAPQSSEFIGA
Method: as §1
as §2, with “Ba/F3-EGFR-L858R, Ba/F3-EGFR-delLREA, (Ba/F3-vector-control).” for “Ba/F3-EGFR-WT.”
as §5
as §3, with “2 days” for “24 hours”, “50” for “30”, “4000” for “3200”, “absence of IL-3 and 2000 cells per well for cells (pBABE puro empty vector) assayed in the presence” for “absence”
as §4, with “20” for “30”, “Reagent diluted 1:3 in PBS.” for “Reagent.”

[3] = target: Ba/F3-ERBB2-A775_G776insYVMA cells (Homo sapiens, UniProt P04626, DUP772-775, cells depend on it); test: BA/F3 (ERBB2 A775_G776 insYVMA) proliferation; conditions: Table 12; read-out: BA/F3 (ERBB2 A775_G776 insYVMA) IC50
Sequence of Ba/F3-ERBB2-A775_G776insYVMA cells (P04626 with tags, fused parts or gaps DUP772-775): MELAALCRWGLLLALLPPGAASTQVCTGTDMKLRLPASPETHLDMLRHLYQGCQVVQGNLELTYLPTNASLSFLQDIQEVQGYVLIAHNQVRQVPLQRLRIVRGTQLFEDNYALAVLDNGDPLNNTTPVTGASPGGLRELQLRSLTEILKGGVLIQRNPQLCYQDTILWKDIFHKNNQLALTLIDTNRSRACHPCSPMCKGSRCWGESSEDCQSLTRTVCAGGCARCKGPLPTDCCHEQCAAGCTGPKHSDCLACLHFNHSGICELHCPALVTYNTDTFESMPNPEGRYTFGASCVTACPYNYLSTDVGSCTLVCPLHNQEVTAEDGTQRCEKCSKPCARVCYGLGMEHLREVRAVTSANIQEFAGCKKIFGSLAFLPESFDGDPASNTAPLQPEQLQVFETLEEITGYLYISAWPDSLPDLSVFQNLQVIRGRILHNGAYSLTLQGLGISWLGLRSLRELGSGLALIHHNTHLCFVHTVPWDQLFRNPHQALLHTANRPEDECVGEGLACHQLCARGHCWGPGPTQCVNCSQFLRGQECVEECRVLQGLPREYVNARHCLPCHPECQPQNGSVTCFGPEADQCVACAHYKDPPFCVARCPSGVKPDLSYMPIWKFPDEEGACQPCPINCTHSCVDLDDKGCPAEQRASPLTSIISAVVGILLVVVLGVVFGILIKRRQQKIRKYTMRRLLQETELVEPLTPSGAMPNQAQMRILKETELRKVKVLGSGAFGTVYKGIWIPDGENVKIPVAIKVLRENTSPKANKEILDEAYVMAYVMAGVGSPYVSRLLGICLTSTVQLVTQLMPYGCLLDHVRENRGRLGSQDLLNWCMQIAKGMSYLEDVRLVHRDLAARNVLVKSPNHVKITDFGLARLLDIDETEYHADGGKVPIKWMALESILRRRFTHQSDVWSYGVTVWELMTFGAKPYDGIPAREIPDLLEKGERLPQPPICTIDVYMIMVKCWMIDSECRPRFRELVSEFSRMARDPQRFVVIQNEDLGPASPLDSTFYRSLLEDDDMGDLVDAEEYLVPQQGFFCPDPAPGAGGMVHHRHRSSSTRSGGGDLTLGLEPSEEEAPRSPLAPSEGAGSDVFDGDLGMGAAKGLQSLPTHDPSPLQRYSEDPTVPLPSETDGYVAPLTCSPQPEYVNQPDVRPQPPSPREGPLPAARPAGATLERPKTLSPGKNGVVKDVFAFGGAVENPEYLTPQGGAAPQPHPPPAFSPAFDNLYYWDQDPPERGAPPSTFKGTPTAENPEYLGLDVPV
Method: as §1
as §2, with “Ba/F3-EGFR-V769_D770 insASV, Ba/F3-EGFR-D770_N771 insNPG, Ba/F3-EGFR-N771_P772 insH, Ba/F3-EGFR-H773_V774 insNPH, Ba/F3-EGFR-D770_N771 insSVD C797S, Ba/F3-EGFR-E746_A750del C797S, Ba/F3-EGFR-L858R C797S, Ba/F3-EGFR L861Q and Ba/F3-ERBB2-A775_G776insYVMA (Ba/F3-vector-control).” for “Ba/F3-EGFR-WT.”

[4] = system: Ba/F3-EGFR-E746_A750del C797S cells; test: BA/F3 (EGFR E746_A750del C797S) proliferation, acquired resistance; conditions: Table 11, acquired resistance space
Method: as §1
as §2, with “Ba/F3-EGFR-V769_D770 insASV, Ba/F3-EGFR-D770_N771 insNPG, Ba/F3-EGFR-N771_P772 insH, Ba/F3-EGFR-H773_V774 insNPH, Ba/F3-EGFR-D770_N771 insSVD C797S, Ba/F3-EGFR-E746_A750del C797S, Ba/F3-EGFR-L858R C797S, Ba/F3-EGFR L861Q and Ba/F3-ERBB2-A775_G776insYVMA (Ba/F3-vector-control).” for “Ba/F3-EGFR-WT.”

Ba/F3-EGFR L861Q cells = test: BA/F3 (EGFR L861Q) proliferation, uncommon EGFR mutation; conditions: Table 10, classical activating and uncommon EGFR mutations
Method: as §1
as §2, with “Ba/F3-EGFR-V769_D770 insASV, Ba/F3-EGFR-D770_N771 insNPG, Ba/F3-EGFR-N771_P772 insH, Ba/F3-EGFR-H773_V774 insNPH, Ba/F3-EGFR-D770_N771 insSVD C797S, Ba/F3-EGFR-E746_A750del C797S, Ba/F3-EGFR-L858R C797S, Ba/F3-EGFR L861Q and Ba/F3-ERBB2-A775_G776insYVMA (Ba/F3-vector-control).” for “Ba/F3-EGFR-WT.”

[5] = target: Ba/F3-EGFR-V769_D770 insASV cells (Homo sapiens, UniProt P00533, DUP767-769, cells depend on it); test: BA/F3 (ASV) proliferation, EGFR Exon20 insertion mutation; conditions: Table 9; EGFR Exon20 insertion mutations; read-out: BA/F3 (ASV) IC50
Sequence of Ba/F3-EGFR-V769_D770 insASV cells (P00533 with tags, fused parts or gaps DUP767-769): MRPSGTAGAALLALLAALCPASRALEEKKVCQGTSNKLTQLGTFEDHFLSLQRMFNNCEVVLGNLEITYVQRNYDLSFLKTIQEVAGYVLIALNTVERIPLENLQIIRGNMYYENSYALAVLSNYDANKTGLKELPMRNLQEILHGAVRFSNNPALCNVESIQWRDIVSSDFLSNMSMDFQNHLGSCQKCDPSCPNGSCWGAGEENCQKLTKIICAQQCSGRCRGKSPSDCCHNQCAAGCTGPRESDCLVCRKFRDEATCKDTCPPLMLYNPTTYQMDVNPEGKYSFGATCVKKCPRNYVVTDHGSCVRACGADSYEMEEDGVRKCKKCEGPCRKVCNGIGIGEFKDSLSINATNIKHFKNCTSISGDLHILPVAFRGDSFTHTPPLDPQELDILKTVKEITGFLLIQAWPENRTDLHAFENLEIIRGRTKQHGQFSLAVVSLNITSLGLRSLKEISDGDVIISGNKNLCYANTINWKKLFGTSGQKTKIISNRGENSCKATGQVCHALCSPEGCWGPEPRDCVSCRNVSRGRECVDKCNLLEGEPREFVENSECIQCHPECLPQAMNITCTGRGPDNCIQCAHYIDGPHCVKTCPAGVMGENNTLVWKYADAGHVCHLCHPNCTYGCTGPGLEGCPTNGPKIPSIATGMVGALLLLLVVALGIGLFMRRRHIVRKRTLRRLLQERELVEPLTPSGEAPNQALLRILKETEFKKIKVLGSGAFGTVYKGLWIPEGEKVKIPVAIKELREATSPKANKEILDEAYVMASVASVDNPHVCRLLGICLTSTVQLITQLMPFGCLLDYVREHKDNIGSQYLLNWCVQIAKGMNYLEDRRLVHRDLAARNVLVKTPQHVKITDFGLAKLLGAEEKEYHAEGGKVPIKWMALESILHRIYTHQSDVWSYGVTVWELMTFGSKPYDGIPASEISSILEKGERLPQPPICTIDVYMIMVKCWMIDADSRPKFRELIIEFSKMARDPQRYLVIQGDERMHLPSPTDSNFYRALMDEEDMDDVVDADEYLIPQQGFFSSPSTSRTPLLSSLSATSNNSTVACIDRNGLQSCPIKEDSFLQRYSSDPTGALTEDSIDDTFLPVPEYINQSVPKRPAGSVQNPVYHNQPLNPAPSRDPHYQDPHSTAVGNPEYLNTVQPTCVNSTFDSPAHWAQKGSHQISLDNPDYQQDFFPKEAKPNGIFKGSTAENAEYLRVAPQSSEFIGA
Method: as §1
as §2, with “Ba/F3-EGFR-V769_D770 insASV, Ba/F3-EGFR-D770_N771 insNPG, Ba/F3-EGFR-N771_P772 insH, Ba/F3-EGFR-H773_V774 insNPH, Ba/F3-EGFR-D770_N771 insSVD C797S, Ba/F3-EGFR-E746_A750del C797S, Ba/F3-EGFR-L858R C797S, Ba/F3-EGFR L861Q and Ba/F3-ERBB2-A775_G776insYVMA (Ba/F3-vector-control).” for “Ba/F3-EGFR-WT.”

[6] = system: Ba/F3-EGFR-L858R C797S cells; test: BA/F3 (EGFR L858R C797S) proliferation, acquired resistance; conditions: Table 11, acquired resistance space
Method: as §1
as §2, with “Ba/F3-EGFR-V769_D770 insASV, Ba/F3-EGFR-D770_N771 insNPG, Ba/F3-EGFR-N771_P772 insH, Ba/F3-EGFR-H773_V774 insNPH, Ba/F3-EGFR-D770_N771 insSVD C797S, Ba/F3-EGFR-E746_A750del C797S, Ba/F3-EGFR-L858R C797S, Ba/F3-EGFR L861Q and Ba/F3-ERBB2-A775_G776insYVMA (Ba/F3-vector-control).” for “Ba/F3-EGFR-WT.”

[7] = system: Ba/F3-EGFR-D770_N771 insSVD C797S cells; test: BA/F3 (EGFR D770_N771 insSVD C797S) proliferation, acquired resistance; conditions: Ba/F3 EGFR-D770-N771ins_SVD; Table 11; acquired resistance space
Method: as §1
as §2, with “Ba/F3-EGFR-V769_D770 insASV, Ba/F3-EGFR-D770_N771 insNPG, Ba/F3-EGFR-N771_P772 insH, Ba/F3-EGFR-H773_V774 insNPH, Ba/F3-EGFR-D770_N771 insSVD C797S, Ba/F3-EGFR-E746_A750del C797S, Ba/F3-EGFR-L858R C797S, Ba/F3-EGFR L861Q and Ba/F3-ERBB2-A775_G776insYVMA (Ba/F3-vector-control).” for “Ba/F3-EGFR-WT.”

[8] = target: Ba/F3-EGFR-D770_N771 insNPG cells (Homo sapiens, UniProt P00533, INS772GNP, cells depend on it); test: BA/F3 (insNPG) proliferation, EGFR Exon20 insertion mutation; conditions: Table 9; EGFR Exon20 insertion mutations; read-out: BA/F3 (insNPG) IC50
Method: as §1
as §2, with “Ba/F3-EGFR-V769_D770 insASV, Ba/F3-EGFR-D770_N771 insNPG, Ba/F3-EGFR-N771_P772 insH, Ba/F3-EGFR-H773_V774 insNPH, Ba/F3-EGFR-D770_N771 insSVD C797S, Ba/F3-EGFR-E746_A750del C797S, Ba/F3-EGFR-L858R C797S, Ba/F3-EGFR L861Q and Ba/F3-ERBB2-A775_G776insYVMA (Ba/F3-vector-control).” for “Ba/F3-EGFR-WT.”

[9] = system: HCC-827 cells (EGFRex19del); test: HCC-827 cell proliferation, Cell Titer Glo, 72 h; conditions: Homo sapiens, HCC827, 72 h, Table 12, several values per example
Method: (§6) HCC-827 cells were purchased from ATCC. 400 HCC-829 cells per well were seeded in growth medium (RPMI1640, 10% FCS) in a 384-well plate (CORNING #3571). Seed reference plate for time zero determination on the same day. All plates were incubated overnight at 37° C. After 24 hours, test compound were added in 7-step dilution using HP Compound printer and incubated at 37° C. for 72 h. After 3 days, 30 μL/well CTG solution (Promega Cell Titer Glo solution; catalog #G755B and G756B) were added to each well, incubated for 30 minutes and the plate were read on PheraStar. Proliferation is calculated after subtracting time zero luminescence values from day 4 values and comparing to untreated wells.
The IC50 values were determined using the four parameter fit.

PC9 cells (EGFRex19del) = test: PC9 cell proliferation, Cell Titer Glo, 72 h; conditions: Homo sapiens, PC-9, 72 h, Table 12, several values per example
Method: as §6, with “PC9” for “HCC-827”, “PC9” for “HCC-829”, “(DMEM,” for “(RPMI1640,”, “wells. The IC50 values were determined using the four parameter fit.” for “wells.”

[10] = Table 8, without IL-3, 48 h, read-out: BA/F3 (EGFR del19/delREA (746-750) IC50)
[11] = Table 10, classical activating and uncommon EGFR mutations, read-out: BA/F3 (EGFR E746_A750del) IC50
[12] = Table 10, classical activating and uncommon EGFR mutations

Sequence of Ba/F3-EGFR-WT cells (BA/F3 wild type EGFR) (P00533 whole entry, change not shown): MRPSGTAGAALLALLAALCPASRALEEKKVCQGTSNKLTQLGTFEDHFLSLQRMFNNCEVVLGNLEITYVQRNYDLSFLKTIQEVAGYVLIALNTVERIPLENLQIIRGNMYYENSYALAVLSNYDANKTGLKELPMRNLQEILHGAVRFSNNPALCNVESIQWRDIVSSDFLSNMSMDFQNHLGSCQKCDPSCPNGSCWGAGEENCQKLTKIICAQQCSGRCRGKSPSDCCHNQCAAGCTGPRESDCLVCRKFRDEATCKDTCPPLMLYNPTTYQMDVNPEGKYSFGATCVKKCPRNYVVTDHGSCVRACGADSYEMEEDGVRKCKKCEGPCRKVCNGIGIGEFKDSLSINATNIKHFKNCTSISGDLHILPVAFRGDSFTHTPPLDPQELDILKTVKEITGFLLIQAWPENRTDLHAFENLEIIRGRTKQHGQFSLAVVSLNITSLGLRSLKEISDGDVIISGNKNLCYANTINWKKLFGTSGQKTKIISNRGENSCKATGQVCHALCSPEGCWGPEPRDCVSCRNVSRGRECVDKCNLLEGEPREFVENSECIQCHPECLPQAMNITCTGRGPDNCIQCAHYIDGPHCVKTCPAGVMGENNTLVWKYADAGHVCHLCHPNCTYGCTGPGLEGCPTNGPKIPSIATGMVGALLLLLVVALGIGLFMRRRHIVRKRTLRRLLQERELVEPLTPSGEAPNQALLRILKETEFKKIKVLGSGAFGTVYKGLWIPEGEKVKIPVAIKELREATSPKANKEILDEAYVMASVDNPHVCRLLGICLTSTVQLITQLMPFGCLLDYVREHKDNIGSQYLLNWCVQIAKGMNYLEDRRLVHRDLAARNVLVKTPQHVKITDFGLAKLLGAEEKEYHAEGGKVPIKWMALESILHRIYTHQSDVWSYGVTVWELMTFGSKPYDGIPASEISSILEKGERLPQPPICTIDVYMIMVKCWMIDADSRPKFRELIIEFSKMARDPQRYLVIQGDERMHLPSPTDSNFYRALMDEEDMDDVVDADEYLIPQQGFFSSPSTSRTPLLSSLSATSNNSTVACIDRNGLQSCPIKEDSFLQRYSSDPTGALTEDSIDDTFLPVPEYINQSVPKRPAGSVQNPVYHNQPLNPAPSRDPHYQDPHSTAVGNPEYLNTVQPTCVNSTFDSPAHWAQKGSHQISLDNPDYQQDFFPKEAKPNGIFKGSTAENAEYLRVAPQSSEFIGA

| Compound | GI50 [1] | IC50 [2, 10] | GI50 (Ba/F3-EGFR-L858R cells; Table 8, without IL-3, 48 h) | GI50 [3] | IC50 [4] | IC50 (Ba/F3-EGFR L861Q cells) | GI50 [5] | IC50 [6] | IC50 [7] | GI50 [8] | IC50 [2, 11] | GI50 (Ba/F3-EGFR-L858R cells; [12]) | IC50 [9] | IC50 (PC9 cells (EGFRex19del)) |
| --- | --- | --- | --- | --- | --- | --- | --- | --- | --- | --- | --- | --- | --- | --- |
| COC(C)(C)COc1cnccc1-c1[nH]c2c(c1Nc1cccc(F)c1OC(F)F)C(=O)NCC2 [Example 19, 3-{[2-(difluoromethoxy)-3-fluorophenyl]amino}-2-[3-(2-methoxy-2-methylpropoxy)pyridin-4-yl]-1,5,6,7-tetrahydro-4H-pyrrolo[3,2-c]pyridin-4-one] | 870 nM | 0.32 nM | 4.7 nM | – | – | – | – | – | – | – | – | – | – | – |
| COC(C)(C)COc1cnccc1-c1[nH]c2c(c1Nc1cccc(F)c1CC(F)F)C(=O)NCC2 [Example 23, 3-{[2-(2,2-difluoroethyl)-3-fluorophenyl]amino}-2-[3-(2-methoxy-2-methylpropoxy)pyridin-4-yl]-1,5,6,7-tetrahydro-4H-pyrrolo[3,2-c]pyridin-4-one] | 388 nM | 0.26 nM | 3.2 nM | – | – | – | – | – | – | – | – | – | – | – |
| COc1c(Cl)cccc1Nc1c(-c2ccncc2OCC(C)(C)OC)[nH]c2c1C(=O)NCC2 [Example 33, 3-(3-chloro-2-methoxyanilino)-2-[3-(2-methoxy-2-methylpropoxy)pyridin-4-yl]-1,5,6,7-tetrahydro-4H-pyrrolo[3,2-c]pyridin-4-one] | – | – | – | 41.1 nM | 1.42 nM | 57.3 nM | 30.4 nM | 3.34 nM | 49.4 nM | 26.2 nM | 2.96 nM | 3.16 nM | – | – |
| COc1c(Cl)cccc1Nc1c(-c2ccncc2OC[C@@H]2CCCN2C)[nH]c2c1C(=O)NCC2 [Example 48, 3-(3-chloro-2-methoxyanilino)-2-(3-{[(2S)-1-methylpyrrolidin-2-yl]methoxy}pyridin-4-yl)-1,5,6,7-tetrahydro-4H-pyrrolo[3,2-c]pyridin-4-one] | – | – | – | 21.7 nM | 0.543 nM | 21.4 nM | 15.1 nM | 1.06 nM | 17.2 nM | 10 nM | 1.13 nM | 1.39 nM | < 3 nM | 10 nM |
